Test results from patent US9758477B2, “Sulfamoylbenzamide derivatives as antiviral agents against HBV infection” (priority 2011, dated 2017).

Test system: HBV
Experiment: Antiviral activity in HepDES19 cells, core-associated HBV DNA by Southern blot hybridization
Assay type: cell-based
Conditions: Hepatitis B virus, 144 h, Table 10, HepDES19 cells, 6 days, unit inferred; for EC90: HBV DNA reduced by 90%; for EC50: Southern blot
Method: FIG. 2 and Table 10, in human hepatoma-derived cell lines: To further confirm the antiviral activity of the compounds of the disclosure against HBV in human hepatocyte-derived cells, HepDES19 cells, a human hepatoma cell line supporting HBV replication in a tetracycline inducible manner (Guo et al., 2007), seeded into 12-well plates at a density of 5×10^5 cells per well and cultured in DMEM/F12 media with 10% fetal bovine serum and 1 μg/ml tetracycline. Two days after seeding, the cells were mock-treated or treated with a serial dilution of compounds of the disclosure, ranging from 10 μM to 0.018 μM, for 6 days in the absence of tetracycline. Upon the completion of treatment, cells were lysed by adding into each well of the 12-well plates 0.5 ml of lysis buffer containing 10 mM Tris-HCl (pH 8.0), 1 mM EDTA, 1% NP40 and 2% sucrose and incubating at 37° C. for 10 minutes. Cell debris and nuclei were removed by centrifugation and the supernatant was mixed with 130 μl of 35% polyethylene glycol (PEG) 8000 containing 1.5 M NaCl. After 1 hour incubation in ice, viral nucleocapsids were pelleted by centrifugation at 6,000×g for 5 min at 4° C., followed by 1 hour digestion at 37° C. in 400 μl of digestion buffer containing 0.5 mg/ml pronase (Calbiochem), 0.5% SDS, 150 mM NaCl, 25 mM Tris-HCl (pH 8.0) and 10 mM EDTA. The digestion mixture was extracted twice with phenol and DNA was precipitated with ethanol, dissolved in TE buffer (10 mM Tris-HCl, pH 8.0; 0.1 mM EDTA). One half of the DNA sample from each well was resolved by electrophoresis into a 1.5% agarose gel. The gel was then subjected to denaturation in a solution containing 0.5 M NaOH and 1.5 M NaCl, followed by neutralization in a buffer containing 1 M Tris-HCl (pH7.4) and 1.5 M NaCl. DNA was then blotted onto Hybond-XL membrane (GE Health care) in 20×SSC buffer. The amounts of cytoplasmic HBV core-associated HBV DNA were determined by Southern blot hybridization and the antiviral efficacy of a compound was expressed as its concentration that reduce the amount of HBV DNA by 50% (EC50) or 90% (EC90).

SMILES	EC90	EC50
CCC(C)NS(=O)(=O)c1ccc(F)c(C(=O)Nc2ccc(F)c(F)c2)c1 (stereo not shown) [DVR-23, 5-sec-butylsulfamoyl-N-(3,4-difluoro-phenyl)-2-fluoro-benzamide]	860 nM	280 nM
O=C(Nc1ccc(F)c(F)c1)c1cc(S(=O)(=O)NC2CCCC2)ccc1F [DVR-56, 5-cyclopentylsulfamoyl-N-(3,4-difluoro-phenyl)-2-fluoro-benzamide]	1850 nM	420 nM
